How the values were obtained:
calf serum albumin (BSA) = assay: Modification of BSA by lipid peroxides (protein carbonyl, OLAARPs); type: biochemical; details: for OLAARPs Formation: (%) / Protein carbonyl Formation: (%): BSA, versus no saccharide; for Formed OLAARPs / Formed Protein carbonyl: 37° C., 24 hours
Protocol: (§1) In this experiment, saccharide solutions were prepared to give an equal total saccharide molar concentration in each solution.
(§2) As a negative control, PBS was used.
(§3) To five milliliters of either of the above saccharide solutions for testing or the negative control was added 10 mg of calf serum albumin (BSA) or L-lysine, followed by dissolving. To each of the resulting solutions was added 25 μg of 2,4-decadienal or malondialdehyde (MDA) as a lipid peroxide, followed by reaction at 37° C. for 24 hours. After completion of the reaction, protein carbonyl and reaction products of oxidized lipids/aminoacids (OLAARPs) formed as aldehyde adducts were quantified on the calorimetric method. […] The formation levels of protein carbonyl and OLAARPs were determined based on the absorbances obtained in this experiment, in terms of the molar absorbance coefficient for each molecule as disclosed in Biochim. Biophys.
(§4) To each of the resulting mixtures was added 600 μl of 30% trichloroacetic acid, and the mixture was allowed to stand at 0° C. for one hour and centrifuged at 10,000 rpm for 15 min to obtain a precipitate, followed by washing the resulting precipitate four times with two milliliters of ethanol/ethylacetate (1:1), respectively, adding 1.5 ml of 6M-guanidine hydrochloride/20 mM-NaPi/TFA (pH 2.3) to the resultant, allowing the mixture to stand at 37° C. for 30 min, and measuring the absorbance of the resulting mixture at a wavelength of 580 nm, ε=35,000 M^−1 cm^−1.

[1] = Modification of L-lysine by lipid peroxides (protein carbonyl, OLAARPs); details: for OLAARPs Formation: (%) / Protein carbonyl Formation: (%): L-lysine, versus no saccharide; for Formed OLAARPs / Formed Protein carbonyl: 37° C., 24 hours
Protocol: as §1, §2
as §3, with “Biophys. Acta, No. 1,258, pp. 319-327 (1985).” for “Biophys.”
as §4, with “cm^−1. […] To any one of the resulting mixtures was added two milliliters of a 12.5 mM DNPH/2.5 N-hydrochloride solution, and the resulting mixture was allowed to stand at 45° C. for 30 min, followed by measuring the absorbance of the resulting mixture at a wavelength of 580 nm, E=35,000 M^−1 cm^−1.” for “cm^−1.”

maltase = assay: Maltase activity of rat small intestinal mucosal enzyme solution after AAPH oxidation; type: biochemical
Protocol: One milliliter of the above rat small intestinal mucosal enzyme solution, one milliliter of a 100 mM AAPH solution, one milliliter of a 50 mM phosphate buffer (pH 7.2), and one milliliter of a 400 mM of the crystalline cyclotetrasaccharide pentahydrate prepared in Experiment 1-1 were mixed, incubated at 37° C. for two hours, and measured for the activities of sucrase and maltase. […] To a half milliliter of a maltose solution, which had been prepared by dissolving maltose in 50 mM sodium maleate (pH 6.6) to give a concentration of one percent (%), 0.05 ml of a AAPH-rat small intestinal mucosal enzyme solution. After incubated at 37° C. for 30 min, the mixture was quantified for free glucose by the GOD method. One unit (U) activity of maltase was defined as an enzyme amount that releases two micromoles of glucose per minutes from maltose at 37° C.

sucrase = assay: Sucrase activity of rat small intestinal mucosal enzyme solution after AAPH oxidation; type: biochemical
Protocol: One milliliter of the above rat small intestinal mucosal enzyme solution, one milliliter of a 100 mM AAPH solution, one milliliter of a 50 mM phosphate buffer (pH 7.2), and one milliliter of a 400 mM of the crystalline cyclotetrasaccharide pentahydrate prepared in Experiment 1-1 were mixed, incubated at 37° C. for two hours, and measured for the activities of sucrase and maltase.
After incubated at 37° C. for 30 min, the mixture was quantified for free glucose by the GOD method.

[2] = added lipid peroxide 2,4-decadienal
[3] = added lipid peroxide malondialdehyde (MDA)
[4] = enzyme solution incubated with AAPH at 37° C. for two hours, with or without cyclotetrasaccharide
[5] = versus system with no AAPH, 37° C., two hours

SMILES | OLAARPs Formation: (%) (calf serum albumin (BSA); 2,4-decadienal) | Protein carbonyl Formation: (%) (calf serum albumin (BSA); 2,4-decadienal) | OLAARPs Formation: (%) (calf serum albumin (BSA); MDA) | Protein carbonyl Formation: (%) (calf serum albumin (BSA); MDA) | Formed OLAARPs (calf serum albumin (BSA); [2]) | Formed Protein carbonyl (calf serum albumin (BSA); [2]) | Formed OLAARPs (calf serum albumin (BSA); [3]) | Formed Protein carbonyl (calf serum albumin (BSA); [3]) | OLAARPs Formation: (%) ([1]; 2,4-decadienal) | Protein carbonyl Formation: (%) ([1]; 2,4-decadienal) | OLAARPs Formation: (%) ([1]; MDA) | Protein carbonyl Formation: (%) ([1]; MDA) | Formed OLAARPs [1, 2] | Formed Protein carbonyl [1, 2] | Formed OLAARPs [1, 3] | Formed Protein carbonyl [1, 3] | Maltase activity (maltase; [4]) | Maltase Relative residual activity (%) (maltase; [5]) | Sucrase activity (sucrase; [4]) | Sucrase Relative residual activity (%) (sucrase; [5])
OC[C@@H](O)[C@@H](O[C@H]1O[C@H](CO)[C@@H](O)[C@H](O)[C@H]1O)[C@H](O)[C@@H](O)CO [Maltitol, maltitol] | (67) % | (53) % | (48) % | (53) % | 2.83 μmol/g-BSA | 7.51 μmol/g-BSA | 2.78 μmol/g-BSA | 1.29 μmol/g-BSA | (73) % | (51) % | (84) % | (55) % | 5.90 μmol/g-L-lysine | 6.81 μmol/g-L-lysine | 7.23 μmol/g-L-lysine | 3.29 μmol/g-L-lysine |  |  |  | 
OC[C@H]1O[C@@](CO)(O[C@H]2O[C@H](CO)[C@@H](O)[C@H](O)[C@H]2O)[C@@H](O)[C@@H]1O [Sucrose, sucrose] |  |  |  |  |  |  |  |  | (93) % | (81) % | (94) % | (96) % | 7.54 μmol/g-L-lysine | 10.92 μmol/g-L-lysine | 8.13 μmol/g-L-lysine | 5.75 μmol/g-L-lysine |  |  |  | 
CC(C)(N=NC(C)(C)C(=N)N)C(=N)N.Cl.Cl [AAPH, 2,2′-azo-bis(2-amidinopropane)dihydrochloride, reference compound] |  |  |  |  |  |  |  |  |  |  |  |  |  |  |  |  | 0.0555 u/mg-protein | (71) % | 0.0042 u/mg-protein | (29) %
